Values joined by “and” are separate entries in the source; they are usually repeats but may differ in a detail not shown here. Equal values may be shown once. Toxic doses and inconclusive results are not listed. Rule for the calls: active = survival T/C of 150% or more; inactive = T/C below 125% in these data.
System: P388 leukemia ip, CD2F1 mice, survival T/C
Experiment: NCI In Vivo Anticancer Drug Screen. Data for tumor model P388 Leukemia (intraperitoneal) in CD2F1 (CDF1) mice
Conditions: endpoint: median survival time, higher = longer survival
In short: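 Mice carrying the transplanted tumor received test compound or vehicle. Survival was recorded in each group, and the value is the treated-group measurement divided by that of the vehicle-treated control group.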

[1] = dose: 50.0 mg/kg/injection, schedule: Q01DX009 (ip), vehicle: saline with Tween-80
[2] = dose: 100.0 mg/kg/injection, schedule: Q01DX009 (ip), vehicle: saline with Tween-80
[3] = dose: 200.0 mg/kg/injection, schedule: Q01DX009 (ip), vehicle: saline with Tween-80
[4] = dose: 400.0 mg/kg/injection, schedule: Q01DX009 (ip), vehicle: saline with Tween-80

Measured: T/C

CNC(=O)ON(C(C)=O)C(=O)NC
inactive: dose: 3.13 mg/kg/injection, schedule: Q03HX015 (ip), vehicle: water 101 % of control and 118 % of control | dose: 6.25 mg/kg/injection, schedule: Q01DX001 (iv), vehicle: saline 95 % of control | dose: 6.25 mg/kg/injection, schedule: Q01DX005 (iv), vehicle: saline 100 % of control | dose: 6.25 mg/kg/injection, schedule: Q01DX009 (ip), vehicle: saline 118 % of control | dose: 6.25 mg/kg/injection, schedule: Q03HX015 (ip), vehicle: water 121 % of control and 98 % of control | dose: 10.0 mg/kg/injection, schedule: Q01DX009 (ip), vehicle: saline 114 % of control and 119 % of control and 120 % of control | dose: 12.5 mg/kg/injection, schedule: Q01DX001 (iv), vehicle: saline 98 % of control | dose: 12.5 mg/kg/injection, schedule: Q01DX005 (ip), vehicle: saline 116 % of control | dose: 12.5 mg/kg/injection, schedule: Q01DX005 (iv), vehicle: saline 102 % of control | dose: 12.5 mg/kg/injection, schedule: Q01DX005 (oral), vehicle: saline 101 % of control | dose: 12.5 mg/kg/injection, schedule: Q01DX009 (ip), vehicle: water 103 % of control and 120 % of control | dose: 12.5 mg/kg/injection, schedule: Q01DX009 (oral), vehicle: saline 103 % of control | dose: 12.5 mg/kg/injection, schedule: Q03HX015 (ip), vehicle: saline 115 % of control | dose: 12.5 mg/kg/injection, schedule: Q03HX015 (ip), vehicle: water 99 % of control and 116 % of control | dose: 20.0 mg/kg/injection, schedule: Q01DX009 (ip), vehicle: saline 121 % of control | dose: 25.0 mg/kg/injection, schedule: Q01DX001 (ip), vehicle: saline 106 % of control | dose: 25.0 mg/kg/injection, schedule: Q01DX001 (iv), vehicle: saline 100 % of control | dose: 25.0 mg/kg/injection, schedule: Q01DX001 (oral), vehicle: saline 98 % of control | dose: 25.0 mg/kg/injection, schedule: Q01DX005 (ip), vehicle: saline 116 % of control | dose: 25.0 mg/kg/injection, schedule: Q01DX005 (iv), vehicle: saline 104 % of control | dose: 25.0 mg/kg/injection, schedule: Q01DX005 (oral), vehicle: saline 104 % of control | dose: 25.0 mg/kg/injection, schedule: Q01DX009 (ip), vehicle: water 106 % of control | dose: 25.0 mg/kg/injection, schedule: Q01DX009 (oral), vehicle: saline 120 % of control | dose: 25.0 mg/kg/injection, schedule: Q03HX015 (ip), vehicle: water 107 % of control | dose: 40.0 mg/kg/injection, schedule: Q01DX009 (ip), vehicle: saline 124 % of control | dose: 50.0 mg/kg/injection, schedule: Q01DX001 (ip), vehicle: saline 111 % of control | dose: 50.0 mg/kg/injection, schedule: Q01DX001 (iv), vehicle: saline 101 % of control and 102 % of control | dose: 50.0 mg/kg/injection, schedule: Q01DX001 (oral), vehicle: saline 97 % of control | dose: 50.0 mg/kg/injection, schedule: Q01DX005 (ip), vehicle: saline 114 % of control | dose: 50.0 mg/kg/injection, schedule: Q01DX005 (iv), vehicle: saline 106 % of control and 108 % of control | dose: 50.0 mg/kg/injection, schedule: Q01DX005 (oral), vehicle: saline 110 % of control | dose: 50.0 mg/kg/injection, schedule: Q01DX009 (ip), vehicle: water 107 % of control | dose: 50.0 mg/kg/injection, schedule: Q01DX009 (oral), vehicle: saline 115 % of control | dose: 50.0 mg/kg/injection, schedule: Q03HX015 (ip), vehicle: water 112 % of control | dose: 80.0 mg/kg/injection, schedule: Q01DX009 (ip), vehicle: saline 121 % of control | dose: 100.0 mg/kg/injection, schedule: Q01DX001 (ip), vehicle: saline 105 % of control | dose: 100.0 mg/kg/injection, schedule: Q01DX001 (iv), vehicle: saline 99 % of control and 101 % of control | dose: 100.0 mg/kg/injection, schedule: Q01DX001 (oral), vehicle: saline 103 % of control | dose: 100.0 mg/kg/injection, schedule: Q01DX005 (iv), vehicle: saline 114 % of control and 115 % of control | dose: 100.0 mg/kg/injection, schedule: Q01DX005 (oral), vehicle: saline 120 % of control | dose: 100.0 mg/kg/injection, schedule: Q01DX009 (ip), vehicle: water 121 % of control | dose: 200.0 mg/kg/injection, schedule: Q01DX001 (iv), vehicle: saline 107 % of control | dose: 200.0 mg/kg/injection, schedule: Q01DX001 (oral), vehicle: saline 103 % of control | dose: 200.0 mg/kg/injection, schedule: Q01DX005 (oral), vehicle: saline 116 % of control | dose: 200.0 mg/kg/injection, schedule: Q01DX009 (ip), vehicle: water 123 % of control | dose: 400.0 mg/kg/injection, schedule: Q01DX001 (oral), vehicle: saline 116 % of control

COc1ccc(C2C(S(=O)(=O)c3ccccc3)CON2c2ccccc2)cc1 (stereo unspecified)
inactive: dose: 50.0 mg/kg/injection, schedule: Q01DX005 (ip), vehicle: saline with Tween-80 97 % of control | dose: 100.0 mg/kg/injection, schedule: Q01DX005 (ip), vehicle: saline with Tween-80 96 % of control | dose: 200.0 mg/kg/injection, schedule: Q01DX005 (ip), vehicle: saline with Tween-80 89 % of control

CN1CCN(Cc2ccc(Nc3ccccc3)cc2)CC1
inactive: dose: 60.0 mg/kg/injection, schedule: Q01DX005 (ip), vehicle: Klucel (hydroxypropylcellulose) (HPC) 105 % of control | dose: 120.0 mg/kg/injection, schedule: Q01DX005 (ip), vehicle: Klucel (hydroxypropylcellulose) (HPC) 108 % of control | dose: 240.0 mg/kg/injection, schedule: Q01DX005 (ip), vehicle: Klucel (hydroxypropylcellulose) (HPC) 98 % of control

CCCC(O)C(NC(=O)CCl)C(=O)O (stereo unspecified)
inactive: dose: 12.5 mg/kg/injection, schedule: Q01DX009 (ip), vehicle: saline 105 % of control and 97 % of control | dose: 25.0 mg/kg/injection, schedule: Q01DX009 (ip), vehicle: saline 100 % of control | dose: 50.0 mg/kg/injection, schedule: Q01DX009 (ip), vehicle: saline 104 % of control and 88 % of control | dose: 100.0 mg/kg/injection, schedule: Q01DX009 (ip), vehicle: saline 91 % of control | dose: 200.0 mg/kg/injection, schedule: Q01DX009 (ip), vehicle: saline 86 % of control

N#C/C(=C\c1ccccc1)C(=O)Nc1ccccc1
inactive: dose: 6.25 mg/kg/injection, schedule: Q01DX009 (ip), vehicle: suspension in saline 99 % of control | dose: 12.5 mg/kg/injection, schedule: Q01DX009 (ip), vehicle: suspension in saline 100 % of control | dose: 25.0 mg/kg/injection, schedule: Q01DX009 (ip), vehicle: suspension in saline 99 % of control | dose: 50.0 mg/kg/injection, schedule: Q01DX009 (ip), vehicle: suspension in saline 97 % of control

Oc1cc2c(cc1C(c1ccc(F)cc1)N1CCOCC1)OCO2 (stereo unspecified)
inactive: dose: 60.0 mg/kg/injection, schedule: Q01DX005 (ip), vehicle: saline with Tween-80 117 % of control | dose: 120.0 mg/kg/injection, schedule: Q01DX005 (ip), vehicle: saline with Tween-80 102 % of control | dose: 240.0 mg/kg/injection, schedule: Q01DX005 (ip), vehicle: saline with Tween-80 108 % of control

CCOC(=O)NC(N)=O
inactive: [1] 91 % of control | [2] 89 % of control | [3] 89 % of control | [4] 97 % of control

c1ccc2c(C[Se][Se]Cc3cccc4ccccc34)cccc2c1
inactive: dose: 100.0 mg/kg/injection, schedule: Q01DX009 (ip), vehicle: Klucel (hydroxypropylcellulose) (HPC) 90 % of control | dose: 200.0 mg/kg/injection, schedule: Q01DX009 (ip), vehicle: Klucel (hydroxypropylcellulose) (HPC) 90 % of control

CC(=O)CC(C)(C)c1ccccc1
inactive: dose: 25.0 mg/kg/injection, schedule: Q01DX009 (ip), vehicle: saline with Tween-80 106 % of control | [1] 104 % of control | [2] 107 % of control and 108 % of control | [3] 103 % of control and 116 % of control | [4] 113 % of control and 95 % of control

CC(=O)NS(=O)(=O)c1ccc(N=Cc2c3ccccc3nc3cc(Cl)ccc23)cc1
inactive: dose: 100.0 mg/kg/injection, schedule: Q04DX002 (ip), vehicle: saline with Tween-80 101 % of control | dose: 200.0 mg/kg/injection, schedule: Q04DX002 (ip), vehicle: saline with Tween-80 93 % of control | dose: 400.0 mg/kg/injection, schedule: Q04DX002 (ip), vehicle: saline with Tween-80 101 % of control

O=C1c2ccccc2C(=O)N1c1ccc(C(F)(F)F)cc1[N+](=O)[O-]
inactive: dose: 100.0 mg/kg/injection, schedule: Q04DX003 (ip), vehicle: saline 91 % of control | dose: 200.0 mg/kg/injection, schedule: Q04DX003 (ip), vehicle: saline 100 % of control | dose: 400.0 mg/kg/injection, schedule: Q04DX003 (ip), vehicle: saline 93 % of control
